In patent US20070238761A1, “Use of pyridoxamine to treat and/or prevent disease processes” (Vanderbilt University, priority 2005, published 2007):

How the values were obtained:
[1] = test system: urinary oxalate excretion; experiment: Ethylene glycol rat model of experimental hyperoxaluria with PM in drinking water; type: in vivo, Sprague-Dawley male rats
Procedure: FIGS. 6A and 6B are graphs depicting the effect of PM treatment on urinary oxalate excretion in animals with experimental hyperoxalura. Sprague-Dawley male rats (49-52 days old) were randomized on Day 1 to receive either ethylene glycol (0.75% v/v in drinking water (450 mg/day/kg body wt.); EG group) or no treatment (Control group). After Day 14, animals within each group were pair-matched according to their oxalate level. One member of each pair was then randomly assigned to receive PM (3 mg/ml or 180 mg/day/kg body wt.) either in drinking water (PM group) or in 0.75% ethylene glycol (EG+PM group). Urine samples were collected under toluene (to inhibit bacteria growth) in 50 ml tubes with hydrochloric acid to minimize spontaneous breakdown of urinary ascorbic acid to oxalate. Urinary oxalate was measured as described under Methods. Each symbol represents mean value±S.E. (n=5); at the time points indicated by asterisks, differences between the EG group and the EG+PM group were statistically significant (p<0.05). The data points on the graphs correspond to the following: ●—Control group; ▪—EG group; —PM group; ⋄—+EG+PM group.
In FIG. 6A, the results of PM given continuously starting from Day 14 are presented.
In FIG. 6B, the results for a separate experiment in which PM treatment was started on Day 14 and was discontinued on Day 28 are presented. In this experiment, the elevated levels of oxalate excretion in Control group on Day 3 are most likely related to animal adaptation. Note that the oxalate levels went down and leveled off before the beginning of PM treatment.
Ethylene glycol model of hyperoxaluria and pyridoxamine treatment. An established rat model of experimental hyperoxaluria, the ethylene glycol (EG) model (see e.g., Lyon et al. (1996) Invest Uro14:143-151; Khan (1997) World J Urol 05:236-243) was employed. […] Because ethylene glycol is converted to glycolaldehyde, an intermediate in glyoxylate pathway, its administration results in increased urinary oxalate levels (Lyon et al. (1996) Invest Urol 4:143-151; Khan (1997) World J Urol 05:236-243). […]
For uniform administration of EG and PM, water supply to all animals was limited to 45 ml/day. […] The length of treatment was determined based on the fact that after about 35 days of experimental hyperoxaluria rats may have some evidence of microscopic nephrolithiasis, but their renal function remains normal (Khan (1997) World J Urol 05:236-243). […]

[2] = test system: 8-F2-isoprostane (8-iso-PGF2) in the kidney; experiment: Carbon tetrachloride rat model of oxidative stress, 8-F2-isoprostane in kidney by GC-MS; type: in vivo; conditions: CCl4 vs. CCl4+PM, p=0.066, not statistically significant; FIG. 5
Procedure: FIG. 5 is a plot depicting the effect of PM administration on the levels of a marker of oxidative stress (8-F2-lsoP) in the carbon tetrachloride (CCl4) rat model disclosed herein as determined by gas-chromatography/mass-spectrometry (GC-MS).
Based on the results of the in vitro experiments disclosed herein, it was hypothesized that PM might reduce oxidative stress in the kidney in vivo. This hypothesis was evaluated using the carbon tetrachloride rat model of oxidative stress (see Kadiiska et al. (2005) Free Radic Biol Med 38:698-710). The effect of PM was determined by measuring the levels of an oxidative stress marker, 8-F2-isoprostane (8-iso-PGF2) in the kidney using gas-chromatography/mass-spectrometry (see Morrow et al. (1999) Methods Enzymol 300:3-12).

[3] = test system: collagen IV; experiment: Formation of CML on collagen IV coated plates incubated with glucose (ELISA, anti-CML antibody); type: biochemical; conditions: 5 mM and 30 mM glucose; 200 mM sodium phosphate buffer, pH 7.5, 37° C., 40 days; FIG. 1B
Procedure: The secondary antibody used in the assay was an alkaline phosphatase conjugated goat anti-rabbit IgG from Sigma-Aldrich Co. (St. Louis, Mo., United States of America). Incubations were carried out in 200 mM sodium phosphate buffer, pH 7.5 at 37° C. for 40 days. […]

[4] = test system: BSA-Amadori glycation intermediate; experiment: Conversion of BSA-Amadori glycation intermediate to CML, measured with anti-CML antibody; type: biochemical; conditions: 0.1, 1, 15 mM PM; 200 mM sodium phosphate buffer, pH 7.5, 37° C.; FIG. 1A
Procedure: FIG. 1A is a graph depicting the conversion of Amadori intermediate to CML measured using anti-CML antibody.
Isolated BSA-Amadori glycation intermediate was formed at diabetic (30 mM) concentration of glucose. The conversion of Amadori intermediate to the AGE N^ε-carboxymethyllysine (CML) was measured using an anti-CML antibody.

[5] = test system: diabetic rat model; conditions: similar or higher PM doses than 180 mg/day/kg body wt.; long-term; Degenhardt et al. 2002, Stitt et al. 2002; cited from earlier work
[6] = test system: Human glomerular visceral epithelial cells (podocytes); experiment: Cisplatin-induced podocyte cell death, viability by Rapid Cell Proliferation Kit; type: cell-based; conditions: 22 hours of treatment; RPMI medium with 1% FBS; FIG. 4
Procedure: Human glomerular visceral epithelial cells (podocytes) were plated at 8,000 cells/well (96-well plate) and incubated for 24 hours in RPMI medium supplemented with 1% FBS. Following this incubation cells were treated as indicated without changing the medium. The treatment continued for 22 hours and cell viability was measured using Rapid Cell Proliferation Kit (CALBIOCHEM®), a unit of EMD Biosciences, Inc. San Diego, Calif., United States of America).

[7] = test system: gentamicin and glycerol rat models of ARF; experiment: Gentamicin and glycerol rat models of ARF treated with PM; type: in vivo, Sprague-Dawley rats; conditions: ARF+PM group compared to ARF group; PM 180 mg/day/kg body weight in drinking water
From the text: The gentamicin and the glycerol rat models of ARF. There are several animal models of ARF, each having its specific advantages and limitations (see e.g., Bellomo et al. (2004) Group Crit Care 8:R204-12). Two such models are the gentamicin and the glycerol models. […] Importantly, the gentamicin and the glycerol models are highly relevant, representing two of the major clinical causes of ARF: antibiotic toxicity and rhabdomyolosis, respectively (Bellomo et al. (2004) Group Crit Care 8:R204-12). Examining the effects of PM in two different models also helps to minimize possible model-specific adverse effects.
The primary outcome measured is serum creatinine level at the end of PM treatment. […]
Two-month-old male Sprague-Dawley rats (250-300 g) are housed individually in metabolic cages. […] Animals are fed standard powdered stock ration, and their body weights are monitored daily. […]
For PM experiments, rats are randomized into 4 groups based on their baseline serum creatinine levels: (a) the Control group (no ARF is induced); (b) the PM group (no ARF is induced, but PM is given in drinking water); (c) the ARF group; and (d) the ARF+PM group. The experiment is terminated when the serum creatinine in the ARF group reaches its maximum level as determined in the model optimization studies described hereinabove. […]

[8] = Reactive PM amino groups in incubations with ethylene glycol (TNBS assay); type: physicochemical; conditions: 24 hours at room temperature
Procedure: Effect of pyridoxamine treatment on urinary oxalate excretion. […] With the proposed experimental design, interference between PM and ethylene glycol might have been possible because both were administered in drinking water. If significant spontaneous oxidation of ethylene glycol occurs in solution, the resulting carbonyl moieties might react with the PM amino group. To address this question, the amount of reactive PM amino groups was measured in incubations with ethylene glycol using TNBS assay (Spadaro et al. (1979) Anal Biochem 96:317-321).

Cc1ncc(CO)c(CN)c1O [PM, 4-(aminomethyl)-5-(hydroxymethyl)-2-methyl-pyridin-3-ol]
urinary oxalate excretion ([1]; EG+PM group vs EG group, PM 180 mg/day/kg body wt. in drinking water continuously from Day 14, FIG. 6A): dramatic and sustained decrease in urinary oxalate excretion
urinary oxalate excretion after PM was discontinued ([1]; PM started Day 14, discontinued Day 28, FIG. 6B): increase in urinary oxalate excretion to the levels found in untreated hyperoxaluric animals
weight gain ([1]; all experimental groups, duration of the experiment, PM 180 mg/day/kg body wt.): No significant differences in weight gain
adverse effects ([1]; all experimental groups, PM 180 mg/day/kg body wt.): no adverse effects
level of the isoprostane marker (8-F2-isoprostane) in the kidney [2]: tendency toward lowering the level of the isoprostane marker
formation of CML on collagen IV [3]: inhibited the formation of CML on collagen IV
conversion of the BSA-Amadori glycation intermediate to BSA-CML [4]: inhibited the conversion of the BSA-Amadori glycation intermediate to BSA-CML
therapeutic effect [5]: had therapeutic effects
podocyte viability under cisplatin treatment [6]: protected cell viability in a concentration-dependent manner
Creatinine levels at the end of experiment (primary outcome) [7]: envisioned to be significantly lower
degree of renal tubular pathology at the end of experiment (secondary outcome) [7]: envisioned to be lower
change in reactive PM amino groups in incubations with ethylene glycol [8]: No change in amino groups was detected
